Results published in patent US20080176828A1, “Treating melanoma with BIS(THIOHYDRAZIDE AMIDES)” (priority 2006, published 2008).
Several values for one entry are separate records, joined by “and”; a condition that tells them apart may be missing. Identical values can stand only once. Like-named read-outs stand apart in the source and are kept apart here.

Experiments:
[1] = test system: melanoma; conditions: currently used melanoma treatments, cited from earlier work
[2] = test system: Stage IV metastatic melanoma
Method: Example 1, weekly treatment regimen of compound (1) and paclitaxel combined in Stage IV metastatic melanoma patients in comparison with paclitaxel alone, based on time to progression
The dosages administered were 213 mg/m^2 compound (1), 80 mg/m^2 paclitaxel, and the dosage regimen was 3 weekly doses per each 4 week cycle. Patients were treated until progression of the disease. […] The tumor assessments were performed at baseline, Cycle 2, and every other Cycle thereafter.

[3] = Kaplan-Meier estimate, efficacy sample, Stage IV melanoma patients, 3 weekly doses per 4 week cycle
[4] = RECIST, efficacy sample, number of patients (% of group)
[5] = own trial arms as listed in Tables 3 and 4

Structure (SMILES): CCOP(=O)(OCC)C(C)NC(=O)N(CCCl)N=O (stereo not shown) [Fotemustine]
- OR [1]: 15.2%
- Survival [1]: 7.3 months
- TTP [1]: 55 days

Structure (SMILES): CC(=O)O[C@H]1C(=O)[C@@]2(C)[C@H]([C@H](OC(=O)c3ccccc3)[C@]3(O)C[C@H](OC(=O)[C@H](O)[C@@H](NC(=O)c4ccccc4)c4ccccc4)C(C)=C1C3(C)C)[C@]1(OC(C)=O)CO[C@@H]1C[C@@H]2O [Paclitaxel]
- OR ([1]; listed as Paclitaxel (Taxol)): 12% and 17.8%
- Time to Progression, 75th percentile (95% CI) [2, 3]: 106.0 (61.0, 218.0) days
- Time to Progression, Median (95% CI) [2, 3]: 56.0 (49.0, 105.0) days
- Best Overall Response: Complete Response (CR) [2, 4]: 0
- Best Overall Response: Partial Response (PR) [2, 4]: 1 (3.7%)
- Best Overall Response: Progressive Disease (PD) [2, 4]: 16 (59.3%)
- CR + PR (95% CI) ([2]; RECIST, efficacy sample, two-sided Fisher's exact test p-value 0.149): 3.7% (0.1%, 19.0%)
- patients with stable disease ([2]; Table 2): 37%
- CR [2, 5]: 0%
- OR [2, 5]: 3.7%
- PR [2, 5]: 3.7%
- TTP [2, 5]: 57 days

Structure (SMILES): CNC(=O)c1cc(Oc2ccc(NC(=O)Nc3ccc(Cl)c(C(F)(F)F)c3)cc2)ccn1 [Sorafenib]
- PR [1]: 2.6%

Structure (SMILES): CC/C(=C(\c1ccccc1)c1ccc(OCCN(C)C)cc1)c1ccccc1 [Tamoxifen]
- CR [1]: 1%
- OR [1]: 4.9%
- PR [1]: 3.9%
